The record followed here is article PMC11444331 (Journal of medicinal chemistry, 2024).

For one assay, the target named is human α9α10 nAChRs (Homo sapiens, UniProt Q9GZZ6+Q9UGM1). Nature of the assay: cell-based.
Another assay concerns the target human α7 nAChRs (Homo sapiens, UniProt P36544). Nature of the assay: cell-based.

In general, IC50 refers to the concentration that gives 50% inhibition. Low readings indicate greater potency in that assay, high ones weaker potency in that assay.

Bridge positions count the residues as written; N and C are the ends. Peptide text beside a SMILES is read from it.

Sequence of human α9α10 nAChRs (Q9UGM1 26-479 limits assumed): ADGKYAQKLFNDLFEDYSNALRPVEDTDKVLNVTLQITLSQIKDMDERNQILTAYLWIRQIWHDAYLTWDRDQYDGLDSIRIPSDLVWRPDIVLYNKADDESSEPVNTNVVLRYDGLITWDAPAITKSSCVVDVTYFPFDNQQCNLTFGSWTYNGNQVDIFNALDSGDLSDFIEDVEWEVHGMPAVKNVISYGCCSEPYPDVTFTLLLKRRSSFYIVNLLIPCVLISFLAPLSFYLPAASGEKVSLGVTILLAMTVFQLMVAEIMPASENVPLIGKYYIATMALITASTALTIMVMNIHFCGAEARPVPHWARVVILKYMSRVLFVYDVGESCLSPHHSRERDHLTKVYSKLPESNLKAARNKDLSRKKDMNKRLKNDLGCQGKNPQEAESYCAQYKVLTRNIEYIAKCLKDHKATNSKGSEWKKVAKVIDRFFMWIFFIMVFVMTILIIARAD
Sequence of human α9α10 nAChRs (Q9GZZ6 25-450 limits assumed): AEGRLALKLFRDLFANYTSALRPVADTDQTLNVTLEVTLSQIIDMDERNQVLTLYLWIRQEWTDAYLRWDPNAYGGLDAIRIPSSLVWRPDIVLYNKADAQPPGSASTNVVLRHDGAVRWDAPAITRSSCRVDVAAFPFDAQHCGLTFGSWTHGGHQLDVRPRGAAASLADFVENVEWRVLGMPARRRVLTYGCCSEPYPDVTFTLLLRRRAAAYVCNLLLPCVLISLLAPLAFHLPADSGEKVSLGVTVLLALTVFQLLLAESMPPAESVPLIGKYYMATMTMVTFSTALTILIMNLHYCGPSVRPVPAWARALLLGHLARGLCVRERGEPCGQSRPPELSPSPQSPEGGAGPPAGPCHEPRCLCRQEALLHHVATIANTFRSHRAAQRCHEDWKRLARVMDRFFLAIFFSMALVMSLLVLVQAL
Sequence of human α7 nAChRs (P36544 23-502 limits assumed): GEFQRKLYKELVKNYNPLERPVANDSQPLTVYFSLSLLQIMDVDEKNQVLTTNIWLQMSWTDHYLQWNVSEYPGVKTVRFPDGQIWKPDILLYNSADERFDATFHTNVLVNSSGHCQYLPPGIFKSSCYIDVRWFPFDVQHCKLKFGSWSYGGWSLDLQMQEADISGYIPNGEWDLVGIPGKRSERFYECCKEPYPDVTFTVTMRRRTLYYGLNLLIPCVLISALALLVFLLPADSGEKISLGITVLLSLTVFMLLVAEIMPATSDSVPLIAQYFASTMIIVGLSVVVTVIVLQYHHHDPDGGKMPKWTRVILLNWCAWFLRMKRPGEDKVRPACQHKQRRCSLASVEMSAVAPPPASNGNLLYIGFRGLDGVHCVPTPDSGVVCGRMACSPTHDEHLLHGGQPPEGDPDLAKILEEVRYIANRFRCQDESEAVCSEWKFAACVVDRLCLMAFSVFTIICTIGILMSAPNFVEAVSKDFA

`C[C@@H]1NC(=O)[C@H](CCCNC(=N)N)NC(=O)[C@H](CO)NC(=O)[C@H](CCCNC(=N)N)NC(=O)[C@H](CO)NC(=O)[C@@H]2CSSC[C@H](NC(=O)CN)C(=O)N[C@@H](CSSC[C@@H](C(N)=O)NC(=O)[C@H](CO)NC(=O)[C@H](CO)NC1=O)C(=O)N[C@@H](CO)C(=O)N[C@@H](Cc1c[nH]cn1)C(=O)N1CCC[C@H]1C(=O)N[C@@H](C)C(=O)N2` [conofurin-Delta-SRSRASS] (H-GCCSHPACSRSRASSC-NH2; disulfide 2-8, 3-16): the values for the half-inhibitory concentration (IC50) on human α9α10 nAChRs and on human α7 nAChRs were > 10 µM and 5.4 µM, respectively.
